Toxic doses and inconclusive results are not listed. The calls were made as follows: active = survival T/C of 150% or more; inactive = T/C below 125% in these data. Peptide text beside a SMILES is read from it.
Test system: P388 leukemia ip, CD2F1 mice, survival T/C
Assay: NCI In Vivo Anticancer Drug Screen. Data for tumor model P388 Leukemia (intraperitoneal) in CD2F1 (CDF1) mice
Conditions: endpoint: median survival time, higher = longer survival
Procedure, shortened: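 Mice carrying the transplanted tumor received test compound or vehicle. Survival was recorded in each group, and the value is the treated-group measurement divided by that of the vehicle-treated control group.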

[1] = dose: 50.0 mg/kg/injection, schedule: Q01DX005 (ip), vehicle: Klucel (hydroxypropylcellulose) (HPC)
[2] = dose: 100.0 mg/kg/injection, schedule: Q01DX005 (ip), vehicle: Klucel (hydroxypropylcellulose) (HPC)
[3] = dose: 200.0 mg/kg/injection, schedule: Q01DX005 (ip), vehicle: Klucel (hydroxypropylcellulose) (HPC)
[4] = dose: 50.0 mg/kg/injection, schedule: Q01DX005 (ip), vehicle: saline with Tween-80
[5] = dose: 100.0 mg/kg/injection, schedule: Q01DX005 (ip), vehicle: saline with Tween-80
[6] = dose: 200.0 mg/kg/injection, schedule: Q01DX005 (ip), vehicle: saline with Tween-80
[7] = dose: 30.0 mg/kg/injection, schedule: Q01DX005 (ip), vehicle: saline with Tween-80

Measured: T/C

COc1cc2c(cc1OC)C1C(=O)c3c(O)cc4c(c3OC1CO2)C=CC(C)(C)O4 (centres undefined)
inactive: dose: 12.5 mg/kg/injection, schedule: Q01DX005 (ip), vehicle: Klucel (hydroxypropylcellulose) (HPC) 98 % of control | dose: 25.0 mg/kg/injection, schedule: Q01DX005 (ip), vehicle: Klucel (hydroxypropylcellulose) (HPC) 100 % of control | [1] 107 % of control | [2] 107 % of control | [3] 111 % of control | dose: 400.0 mg/kg/injection, schedule: Q01DX005 (ip), vehicle: Klucel (hydroxypropylcellulose) (HPC) 111 % of control

CCOc1cnco1
inactive: dose: 100.0 mg/kg/injection, schedule: Q04DX002 (ip), vehicle: saline 99 % of control | dose: 200.0 mg/kg/injection, schedule: Q04DX002 (ip), vehicle: saline 100 % of control | dose: 400.0 mg/kg/injection, schedule: Q04DX002 (ip), vehicle: saline 112 % of control

O=C1c2cccc([N+](=O)[O-])c2C(=O)C1c1ccccn1 (centres undefined)
inactive: dose: 50.0 mg/kg/injection, schedule: Q01DX009 (ip), vehicle: saline with Tween-80 99 % of control | dose: 100.0 mg/kg/injection, schedule: Q01DX009 (ip), vehicle: saline with Tween-80 87 % of control | dose: 200.0 mg/kg/injection, schedule: Q01DX009 (ip), vehicle: saline with Tween-80 96 % of control | dose: 400.0 mg/kg/injection, schedule: Q01DX009 (ip), vehicle: saline with Tween-80 97 % of control

C=C(C)C1CC/C(C)=C/CCC2(C)OC2CC/C(CO)=C\C1O (centres undefined)
inactive: dose: 8.0 mg/kg/injection, schedule: Q01DX009 (ip), vehicle: saline with Tween-80 113 % of control | dose: 16.0 mg/kg/injection, schedule: Q01DX009 (ip), vehicle: saline with Tween-80 114 % of control | dose: 32.0 mg/kg/injection, schedule: Q01DX009 (ip), vehicle: saline with Tween-80 110 % of control | dose: 64.0 mg/kg/injection, schedule: Q01DX009 (ip), vehicle: saline with Tween-80 115 % of control

C1CN(/N=N/c2nn[nH]n2)CCO1
inactive: dose: 50.0 mg/kg/injection, schedule: Q01DX009 (ip), vehicle: Klucel (hydroxypropylcellulose) (HPC) 117 % of control | dose: 100.0 mg/kg/injection, schedule: Q01DX009 (ip), vehicle: Klucel (hydroxypropylcellulose) (HPC) 117 % of control | dose: 200.0 mg/kg/injection, schedule: Q01DX009 (ip), vehicle: Klucel (hydroxypropylcellulose) (HPC) 106 % of control

CN(C)C(=O)c1cccc(COc2ccc(N3C(N)=NC(N)=NC3(C)C)cc2Cl)c1
inactive: dose: 4.0 mg/kg/injection, schedule: Q01DX001 (ip), vehicle: saline 96 % of control | dose: 8.0 mg/kg/injection, schedule: Q01DX001 (ip), vehicle: saline 99 % of control | dose: 8.0 mg/kg/injection, schedule: Q01DX009 (ip), vehicle: saline 107 % of control | dose: 16.0 mg/kg/injection, schedule: Q01DX001 (ip), vehicle: saline 95 % of control | dose: 16.0 mg/kg/injection, schedule: Q01DX009 (ip), vehicle: saline 100 % of control | dose: 16.0 mg/kg/injection, schedule: Q08DX002 (ip), vehicle: saline 100 % of control | dose: 32.0 mg/kg/injection, schedule: Q01DX001 (ip), vehicle: saline 93 % of control | dose: 32.0 mg/kg/injection, schedule: Q01DX009 (ip), vehicle: saline 111 % of control | dose: 32.0 mg/kg/injection, schedule: Q08DX002 (ip), vehicle: saline 110 % of control | dose: 64.0 mg/kg/injection, schedule: Q01DX001 (ip), vehicle: saline 96 % of control

CSc1nc(C)c(C(=O)CCN2CCOCC2)s1
inactive: dose: 60.0 mg/kg/injection, schedule: Q01DX005 (ip), vehicle: saline 117 % of control | dose: 120.0 mg/kg/injection, schedule: Q01DX005 (ip), vehicle: saline 105 % of control

CCOCC[Se]c1ccccc1
inactive: dose: 50.0 mg/kg/injection, schedule: Q01DX009 (ip), vehicle: saline 92 % of control | dose: 100.0 mg/kg/injection, schedule: Q01DX009 (ip), vehicle: saline 92 % of control | dose: 200.0 mg/kg/injection, schedule: Q01DX009 (ip), vehicle: saline 91 % of control

CCCCCC1(CCBr)C(=O)NC(=O)NC1=O
inactive: [1] 100 % of control | [2] 102 % of control | [3] 108 % of control

C=CC(c1ccccc1)c1cc2c(cc1OC)OCO2 (centres undefined)
inactive: [4] 105 % of control | [5] 96 % of control | [6] 100 % of control

CCOc1nc(N)nc(C)c1N=Nc1ccc(Br)cc1
inactive: dose: 60.0 mg/kg/injection, schedule: Q01DX005 (ip), vehicle: Klucel + Tween-80 100 % of control | dose: 120.0 mg/kg/injection, schedule: Q01DX005 (ip), vehicle: Klucel + Tween-80 104 % of control | dose: 240.0 mg/kg/injection, schedule: Q01DX005 (ip), vehicle: Klucel + Tween-80 99 % of control

Cn1c(=O)c2c(Nc3ccccc3)ncnc2n(C)c1=O
inactive: dose: 35.0 mg/kg/injection, schedule: Q01DX005 (ip), vehicle: saline with Tween-80 87 % of control | dose: 70.0 mg/kg/injection, schedule: Q01DX005 (ip), vehicle: saline with Tween-80 87 % of control

CCC(=O)C(C)C1(C(=O)OC)NC(=S)NC(=O)C1C#N (centres undefined)
inactive: dose: 7.5 mg/kg/injection, schedule: Q01DX005 (ip), vehicle: saline with Tween-80 102 % of control | dose: 15.0 mg/kg/injection, schedule: Q01DX005 (ip), vehicle: saline with Tween-80 99 % of control | [7] 103 % of control

CCCCCCCCC1(OCCCS(=O)(=O)O)COc2ccccc2OCCOCCOc2ccccc2OC1
inactive: [7] 96 % of control | dose: 60.0 mg/kg/injection, schedule: Q01DX005 (ip), vehicle: saline with Tween-80 94 % of control

CC(O)C(N)C(=O)NC(Cc1ccccc1)C(N)=O (stereo not drawn) (H-Thr-Phe-NH2; configuration not given here)
inactive: [4] 101 % of control | [5] 100 % of control | [6] 103 % of control

— PubChem BioAssay AID330 (DTP/NCI, 2004)
